Assay results as given in patent publication US10919895B2, “Toll-like receptor 7 (TLR7) agonists having a pyridine or pyrazine moiety, conjugates thereof, and methods and uses therefor” (BRISTOL-MYERS SQUIBB COMPANY, priority 2017, dated 2021).

Tests used:
human TLR7 = human TLR7 (Homo sapiens (Human), UniProt Q9NYK1); experiment: HEK-Blue TLR7 reporter assay for TLR7 agonist activity; type: cell-based; conditions: HEK-Blue TLR7 cells, SEAP reporter, 18 h treatment; read-out: TLR7 Agonism (EC50)
human TLR7, sequence (Q9NYK1 27-1049): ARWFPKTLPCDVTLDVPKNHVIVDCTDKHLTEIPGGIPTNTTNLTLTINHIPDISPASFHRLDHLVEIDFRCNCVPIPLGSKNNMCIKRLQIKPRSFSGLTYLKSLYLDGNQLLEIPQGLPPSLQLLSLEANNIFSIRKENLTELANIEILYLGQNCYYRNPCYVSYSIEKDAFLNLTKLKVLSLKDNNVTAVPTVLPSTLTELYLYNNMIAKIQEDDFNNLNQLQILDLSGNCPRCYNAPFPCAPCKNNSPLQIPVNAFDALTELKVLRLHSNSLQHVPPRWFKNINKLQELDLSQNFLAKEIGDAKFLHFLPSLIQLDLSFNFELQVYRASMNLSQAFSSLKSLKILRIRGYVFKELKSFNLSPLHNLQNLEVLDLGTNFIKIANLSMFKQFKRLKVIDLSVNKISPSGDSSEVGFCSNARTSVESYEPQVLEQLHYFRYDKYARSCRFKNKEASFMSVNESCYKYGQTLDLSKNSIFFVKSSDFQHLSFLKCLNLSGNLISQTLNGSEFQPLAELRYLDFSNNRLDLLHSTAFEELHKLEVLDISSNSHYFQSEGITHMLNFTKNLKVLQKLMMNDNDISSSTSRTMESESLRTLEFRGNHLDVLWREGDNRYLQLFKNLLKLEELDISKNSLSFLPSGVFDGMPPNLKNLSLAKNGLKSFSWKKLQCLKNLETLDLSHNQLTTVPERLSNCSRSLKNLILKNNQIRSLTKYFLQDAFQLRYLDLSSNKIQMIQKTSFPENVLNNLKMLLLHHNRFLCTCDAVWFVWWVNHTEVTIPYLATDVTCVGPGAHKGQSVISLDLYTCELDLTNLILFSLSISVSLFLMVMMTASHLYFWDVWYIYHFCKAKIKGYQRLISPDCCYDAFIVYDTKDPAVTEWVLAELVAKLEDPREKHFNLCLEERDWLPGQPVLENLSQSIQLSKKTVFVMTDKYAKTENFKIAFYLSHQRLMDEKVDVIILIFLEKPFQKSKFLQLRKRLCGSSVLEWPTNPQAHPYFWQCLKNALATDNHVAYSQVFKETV
Method: This example describes a method for assaying TLR7 agonist activity of the compounds disclosed in this specification.
HEK-Blue™ TLR7 cells were added to each well of a 384-well tissue-culture plate (15,000 cells per well) and incubated 16-18 h at 37° C., 5% CO2. Compounds (100 nl) were dispensed into wells containing the HEK-Blue™ TLR cells and the treated cells were incubated at 37° C., 5% CO2. After 18 h treatment ten microliters of freshly-prepared Quanti-Blue™ reagent (Invivogen) was added to each well, incubated for 30 min (37° C., 5% CO2) and SEAP levels measured using an Envision plate reader (OD=620 nm).

interleukin 6 (IL-6) = experiment: IL-6 induction in human whole blood (AlphaLISA); type: cell-based; conditions: 37° C., 20 h
Method: This example describes a method for assaying interleukin 6 induction by compounds disclosed in this specification.
Compounds diluted in DMSO were transferred to individual wells of a Matrix Technologies clear, V-bottom 384-well plate using ECHO acoustic liquid handling technology (25 nL per well). Human whole-blood samples (25 uL) were added to each well using a CyBio FeliX liquid handling instrument. The plate was shaken on a plate shaker for three min before incubating the reaction mixtures at 37° C. for 20 h. Basel RPMI 1640 medium (supplemented with L-glutamine) was then added to each well (25 uL per well) prior to liberating plasma from each sample by centrifugation (450×g, 5 min, ambient temperature). Treated plasma samples (3 uL) were subsequently transferred to individual wells of a white, shallow, 384-well ProxiPlate (Perkin Elmer) using the FeliX liquid handling instrument and their interleukin 6 levels were measured using AlphaLISA technology as described by the manufacturer, PerkinElmer. Data analyses software was used to determine compound EC50 values where the baseline was established using average DMSO values and 100% induction established using reference compound values at the highest concentration tested. EC50's can be determined with software such as Graphpad Prism™.

IFN-α = conditions: fold lower potency vs corresponding purine-8-one compound; cited from earlier work

Row | Structure (SMILES) | EC50 (human TLR7) [nM] | EC50 (interleukin 6 (IL-6)) [nM] | potency less than that of the corresponding purine-8-one compound, as measured by IFN-α induction (IFN-α) [×]
1 | CCCCOc1nc(N)c2nc(O)n(Cc3cnc(CO)cn3)c2n1 [Compound 6] | 288 | – | –
2 | CCCCOc1nc(N)c2nc(O)n(Cc3ccccc3)c2n1 [Compound B, reference compound] | 470 | – | –
3 | CCCCOc1nc(N)c2nc(O)n(Cc3cnc(CNCc4ccncc4)cn3)c2n1 [Ia-01] | 330 | 1000 | –
4 | CCCCOc1nc(N)c2nc(O)n(Cc3cnc(CNCC4COC4)cn3)c2n1 [Ia-02] | 11200 | – | –
5 | CCCCOc1nc(N)c2nc(O)n(Cc3cnc(CNCc4ccccc4)cn3)c2n1 [Ia-03] | 180 | 1000 | –
6 | CCCCOc1nc(N)c2nc(O)n(Cc3cnc(CNCCOC)cn3)c2n1 [Ia-04] | 310 | 600 | –
7 | CCCCOc1nc(N)c2nc(O)n(Cc3cnc(CNC4CC4)cn3)c2n1 [Ia-05] | 140 | 360 | –
8 | CCCCOc1nc(N)c2nc(O)n(Cc3cnc(CNC(C)C)cn3)c2n1 [Ia-06] | 83 | 210 | –
9 | CCCCOc1nc(N)c2nc(O)n(Cc3cnc(CNC4COC4)cn3)c2n1 [Ia-07] | 490 | 1000 | –
10 | CCCCOc1nc(N)c2nc(O)n(Cc3cnc(CNC4CCC4)cn3)c2n1 [Ia-08] | 24 | 220 | –
11 | CCCCNCc1cnc(Cn2c(O)nc3c(N)nc(OCCCC)nc32)cn1 [Ia-09] | 89 | 420 | –
12 | CCCCOc1nc(N)c2nc(O)n(Cc3cnc(CNC)cn3)c2n1 [Ia-10] | 290 | 570 | –
13 | CCCCNCc1ccc(Cn2c(O)nc3c(N)nc(OCCCC)nc32)nc1 [Ib-01] | 15 | 77 | –
14 | CCCCOc1nc(N)c2nc(O)n(Cc3ccc(CNCCOC)cn3)c2n1 [Ib-02] | 28 | 110 | –
15 | CCCCOc1nc(N)c2nc(O)n(Cc3ccc(CNC4CC4)cn3)c2n1 [Ib-03] | 18 | 62 | –
16 | CCCCOc1nc(N)c2nc(O)n(Cc3ccc(CNC4CCC4)cn3)c2n1 [Ib-04] | 12 | 78 | –
17 | CCCCOc1nc(N)c2nc(O)n(Cc3ccc(CNCCCN)cn3)c2n1 [Ib-05] | 62 | 260 | –

Row | Structure (SMILES) | EC50 (human TLR7) [nM] | EC50 (interleukin 6 (IL-6)) [nM] | potency less than that of the corresponding purine-8-one compound, as measured by IFN-α induction (IFN-α) [×]
18 | CCCCOc1nc(N)c2nc(O)n(Cc3ccc(CNCc4ccccc4)cn3)c2n1 [Ib-06] | – | 190 | –
19 | CCCCOc1nc(N)c2nc(O)n(Cc3ccc(CNCc4ccc(N)cc4)cn3)c2n1 [Ib-07] | 41 | 100 | –
20 | CCCCOc1nc(N)c2nc(O)n(Cc3ccc(CNCCCOCCOCCOCCCNC(=O)OC(C)(C)C)cn3)c2n1 [Ib-08] | 47 | 330 | –
21 | CCCCNCc1ccc(Cn2c(O)nc3c(N)nc(OCCCC)nc32)cn1 [Ic-01] | 4.8 | 26 | –
22 | CCCCOc1nc(N)c2nc(O)n(Cc3ccc(CNCCOC)nc3)c2n1 [Ic-02] | 9 | – | –
23 | CCCCOc1nc(N)c2nc(O)n(Cc3ccc(CNC4CC4)nc3)c2n1 [Ic-03] | 5.3 | 14 | –
24 | CCCCOc1nc(N)c2nc(O)n(Cc3ccc(CNCCCN)nc3)c2n1 [Ic-05] | 14 | 28 | –
25 | CCCCOc1nc(N)c2nc(O)n(Cc3ccc(CNCc4ccccc4)nc3)c2n1 [Ic-06] | – | 180 | –
26 | CCCCOc1nc(N)c2nc(O)n(Cc3ccc(CNCc4ccc(N)cc4)nc3)c2n1 [Ic-07] | 11 | 20 | –
27 | CCCCOc1nc(N)c2nc(O)n(Cc3ccc(CNCCCOCCOCCOCCCNC(=O)OC(C)(C)C)nc3)c2n1 [Ic-08] | 23 | 150 | –
28 | CCCCCCNCc1ccc(Cn2c(O)nc3c(N)nc(OCCCC)nc32)cn1 [Ic-09] | – | 37 | –
29 | CCCCOc1nc(N)c2nc(O)n(Cc3ccc(CNCCC)nc3)c2n1 [Ic-10] | 6.1 | 27 | –
30 | CCCCOc1nc(N)c2nc(O)n(Cc3ccc(CNC4CCCC4)nc3)c2n1 [Ic-11] | – | 23 | –
31 | CCCCOc1nc(N)c2nc(O)n(Cc3ccc(CN4CCC(N)CC4)nc3)c2n1 [Ic-12] | – | 13 | –
32 | CCCCOc1nc(N)c2nc(O)n(Cc3ccc(CN4CCC(CN)CC4)nc3)c2n1 [Ic-13] | – | 11 | –
33 | CCCCOc1nc(N)c2c(n1)N(Cc1cccc(CN3CCCC3)c1)CC(=O)N2 [Vesatolimod, vesatolimod] | – | – | 100
